Test results from patent publication US11174245B2, “Benzimidazole compounds and derivatives as EGFR inhibitors” (Boehringer Ingelheim International GmbH, priority 2018, dated 2021).
Like-named read-outs stand apart in the source and are kept apart here.

Columns and labels:
[1] = target: EGFR del19 T790M C797S protein in Ba/F3 cells (Homo sapiens, UniProt P00533, C797S/DEL746-750/T790M); test: pEGFR assay (AlphaScreen Surefire, EGFR Tyr1068 phosphorylation); format: cell-based
Summary of the method: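 Transduced Ba/F3 cells, puromycin-selected and grown IL-3 independent, were treated with compound at 60.000 cells/well for 4 h at 37° C. Lysis followed for 20 min at room temperature, and Tyr1068 phospho-EGFR in lysate was detected after 2 h dark incubation. Results are IC50 values.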

[2] = target: EGFR (d746-750 T790M C797S) (Homo sapiens (Human), UniProt P00533, C797S/DEL746-750/T790M); test: Biochemical EGFR inhibition assay (TR-FRET, poly-GT substrate), EGFR d746-750 T790M C797S
Procedure: (§1) Biochemical EGFR Inhibition Assays
(§2) Initially, the inhibitory effect of compounds according to the invention is measured in biochemical assays which measure the phosphorylation activity of EGFR enzyme forms on poly-GT substrate in the presence of different concentrations of ATP (5 μM and 100 μM final assay concentration).
(§3) The following enzyme forms of EGFR are representative examples that can be used in these assays at the given concentrations:
(§4) For the chosen highest assay concentration of 100 μM, 150 nL of compound solution is transferred from a 10 mM DMSO compound stock solution. A series of eleven fivefold dilutions per compound is transferred to the assay plate, compound dilutions are tested in duplicates. DMSO is added as backfill to a total volume of 150 nL. The assay runs on a fully automated robotic system.
(§5) These biochemical EGFR enzyme form compound dose-response assays quantify the kinase activity via phosphorylation of a tagged poly-GT substrate. The results of the assay are provided as IC50 values.

[3] = target: EGFR wt (Homo sapiens (Human), UniProt P00533); test: Biochemical EGFR inhibition assay (TR-FRET, poly-GT substrate), EGFR wt
Procedure: as §1, §2, §3, §4, §5

[4] = target: EGFR (mutated) 695-1022, T790M, C797S, L858R (Homo sapiens (Human), UniProt P00533, C797S/L858R/T790M); test: Biochemical EGFR inhibition assay (TR-FRET, poly-GT substrate), EGFR T790M C797S L858R
Procedure: as §1, §2, §3, §4, §5

[5] = read-out: wt (100 μM ATP) IC50, 100 μM ATP
[6] = read-out: LR_TM_CS (100 μM ATP) IC50, 100 μM ATP
[7] = read-out: wt (5 μM ATP) IC50, 5 μM ATP
[8] = read-out: LR_TM_CS (5 μM ATP) IC50, 5 μM ATP

Chain of EGFR del19 T790M C797S protein in Ba/F3 cells (P00533 with tags, fused parts or gaps C797S/DEL746-750/T790M limits assumed): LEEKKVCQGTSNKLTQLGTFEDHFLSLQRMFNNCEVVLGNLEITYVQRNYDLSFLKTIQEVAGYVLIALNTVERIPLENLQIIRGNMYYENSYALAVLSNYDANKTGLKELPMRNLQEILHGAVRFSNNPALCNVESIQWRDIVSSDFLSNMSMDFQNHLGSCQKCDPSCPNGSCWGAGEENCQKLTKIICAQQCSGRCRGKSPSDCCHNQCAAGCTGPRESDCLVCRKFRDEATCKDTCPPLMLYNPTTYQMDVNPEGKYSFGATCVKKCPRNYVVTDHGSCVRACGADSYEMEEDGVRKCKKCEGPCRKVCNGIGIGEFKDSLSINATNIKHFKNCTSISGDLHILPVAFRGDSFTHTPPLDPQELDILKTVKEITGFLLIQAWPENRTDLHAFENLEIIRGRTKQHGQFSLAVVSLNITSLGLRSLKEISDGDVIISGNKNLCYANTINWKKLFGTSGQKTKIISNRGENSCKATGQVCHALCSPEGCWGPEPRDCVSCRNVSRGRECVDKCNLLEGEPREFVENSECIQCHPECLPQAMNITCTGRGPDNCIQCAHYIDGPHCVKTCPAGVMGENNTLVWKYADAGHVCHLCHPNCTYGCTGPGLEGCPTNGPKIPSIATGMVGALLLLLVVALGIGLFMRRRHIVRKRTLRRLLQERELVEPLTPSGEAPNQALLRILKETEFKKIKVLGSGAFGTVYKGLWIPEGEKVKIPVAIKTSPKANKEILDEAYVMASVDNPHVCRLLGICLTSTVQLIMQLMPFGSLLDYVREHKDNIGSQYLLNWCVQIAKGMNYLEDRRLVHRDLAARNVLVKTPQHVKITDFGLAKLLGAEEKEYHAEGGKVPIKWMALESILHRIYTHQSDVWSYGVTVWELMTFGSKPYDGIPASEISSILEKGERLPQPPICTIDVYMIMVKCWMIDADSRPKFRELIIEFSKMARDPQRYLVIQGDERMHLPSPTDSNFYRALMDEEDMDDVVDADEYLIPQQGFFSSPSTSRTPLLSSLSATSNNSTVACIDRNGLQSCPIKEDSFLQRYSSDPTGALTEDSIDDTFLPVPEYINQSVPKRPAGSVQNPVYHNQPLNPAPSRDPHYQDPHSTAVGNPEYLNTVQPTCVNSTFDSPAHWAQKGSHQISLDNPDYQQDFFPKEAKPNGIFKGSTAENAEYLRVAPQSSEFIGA
Chain of EGFR (mutated) 695-1022, T790M, C797S, L858R (P00533 695-1022 T790M/C797S/L858R): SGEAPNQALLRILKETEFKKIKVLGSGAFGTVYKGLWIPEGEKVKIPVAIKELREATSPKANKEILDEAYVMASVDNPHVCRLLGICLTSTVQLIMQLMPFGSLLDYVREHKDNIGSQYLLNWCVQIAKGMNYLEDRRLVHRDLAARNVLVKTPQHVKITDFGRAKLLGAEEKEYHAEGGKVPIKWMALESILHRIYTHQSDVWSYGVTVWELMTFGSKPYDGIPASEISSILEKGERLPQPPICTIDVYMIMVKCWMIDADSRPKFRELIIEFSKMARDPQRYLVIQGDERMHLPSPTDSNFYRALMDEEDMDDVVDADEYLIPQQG
Chain of EGFR wt (P00533 25-1210): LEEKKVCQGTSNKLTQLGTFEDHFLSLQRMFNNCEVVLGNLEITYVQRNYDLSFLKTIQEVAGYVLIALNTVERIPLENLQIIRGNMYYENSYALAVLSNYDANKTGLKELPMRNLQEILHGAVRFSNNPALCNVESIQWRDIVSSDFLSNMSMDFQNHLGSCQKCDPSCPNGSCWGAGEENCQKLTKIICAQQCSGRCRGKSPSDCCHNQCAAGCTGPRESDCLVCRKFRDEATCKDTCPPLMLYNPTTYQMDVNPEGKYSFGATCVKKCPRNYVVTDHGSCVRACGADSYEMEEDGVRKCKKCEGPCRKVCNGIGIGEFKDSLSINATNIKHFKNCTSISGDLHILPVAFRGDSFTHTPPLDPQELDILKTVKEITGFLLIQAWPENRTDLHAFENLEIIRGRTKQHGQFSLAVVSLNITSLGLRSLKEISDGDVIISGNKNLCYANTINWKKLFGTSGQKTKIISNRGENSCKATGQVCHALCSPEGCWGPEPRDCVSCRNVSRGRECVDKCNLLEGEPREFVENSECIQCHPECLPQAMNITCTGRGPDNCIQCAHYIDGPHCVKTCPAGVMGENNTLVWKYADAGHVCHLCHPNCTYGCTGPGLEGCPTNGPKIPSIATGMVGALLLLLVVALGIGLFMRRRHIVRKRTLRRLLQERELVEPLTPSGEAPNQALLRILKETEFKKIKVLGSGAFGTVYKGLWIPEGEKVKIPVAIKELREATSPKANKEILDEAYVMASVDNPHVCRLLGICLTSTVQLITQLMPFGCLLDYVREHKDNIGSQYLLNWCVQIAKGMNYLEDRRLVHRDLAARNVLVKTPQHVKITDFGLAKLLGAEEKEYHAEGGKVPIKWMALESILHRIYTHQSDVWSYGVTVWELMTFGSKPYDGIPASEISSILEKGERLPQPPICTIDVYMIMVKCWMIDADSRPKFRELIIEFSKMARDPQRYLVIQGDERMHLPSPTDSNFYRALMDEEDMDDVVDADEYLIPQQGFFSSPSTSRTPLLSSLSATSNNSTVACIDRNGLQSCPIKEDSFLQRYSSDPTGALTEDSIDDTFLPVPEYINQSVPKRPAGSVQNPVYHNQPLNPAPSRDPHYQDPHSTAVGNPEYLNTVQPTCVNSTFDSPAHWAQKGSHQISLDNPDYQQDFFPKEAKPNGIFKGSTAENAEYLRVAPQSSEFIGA
Chain of EGFR (d746-750 T790M C797S) (P00533 other isoform, or with tags, fused parts or gaps T790M/C797S/del 1-694/del 746-750 limits assumed): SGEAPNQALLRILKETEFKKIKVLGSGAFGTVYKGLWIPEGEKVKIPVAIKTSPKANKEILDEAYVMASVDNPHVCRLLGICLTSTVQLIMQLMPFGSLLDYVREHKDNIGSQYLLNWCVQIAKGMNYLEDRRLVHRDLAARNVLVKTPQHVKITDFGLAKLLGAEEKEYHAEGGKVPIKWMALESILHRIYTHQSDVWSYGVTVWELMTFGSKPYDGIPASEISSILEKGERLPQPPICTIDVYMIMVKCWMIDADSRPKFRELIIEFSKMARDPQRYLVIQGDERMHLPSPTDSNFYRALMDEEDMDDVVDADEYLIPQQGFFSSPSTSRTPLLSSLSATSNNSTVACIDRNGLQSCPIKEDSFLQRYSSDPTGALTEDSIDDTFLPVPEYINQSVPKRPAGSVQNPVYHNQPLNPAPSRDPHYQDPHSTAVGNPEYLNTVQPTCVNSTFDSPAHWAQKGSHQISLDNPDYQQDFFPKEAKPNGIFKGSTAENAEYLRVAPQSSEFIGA

SMILES | IC50 [1] [nM] | IC50 ([2]; 100 μM ATP) [nM] | IC50 [3, 5] [nM] | IC50 [4, 6] [nM] | IC50 [3, 7] [nM] | IC50 [4, 8] [nM] | IC50 ([2]; 5 μM ATP) [nM]
COc1ccncc1-c1cc(C(=O)/N=c2\[nH]c3cc(C4CCN(C(C)=O)CC4)ccc3n2CC(C)(C)O)ccn1 [I-031] | 1 | 1.2 |  |  |  |  | 
Cn1cc(-c2cc(C(=O)/N=c3\[nH]c4ccccc4n3CC(C)(C)O)ccn2)cn1 [I-001] | 43 | 71.7 |  |  |  |  | 
CC(=O)N1CCC(c2ccc3c(c2)[nH]/c(=N\C(=O)c2ccnc(-c4cnn(C)c4C)c2)n3CC(C)(C)O)CC1 [I-026] | 7 | 4.4 | 1150 | 34.5 |  |  | 
Cn1cc(-c2cc(C(=O)/N=c3\[nH]c4ccccc4n3C3CCC[S+]([O-])C3)ccn2)cn1 (stereo not shown) [I-220] | 59 |  |  |  | 2860 | 32.7 | 2
Cc1cc(C(=O)/N=c2\[nH]c3ccc(C4CCN(C)CC4)cc3n2[C@H]2CC[C@@H](O)CC2)cc(-c2cnn(C)c2)n1 [I-225] | 2 |  |  |  | 162 | 0.4 | 0.2
Cc1cc(C(=O)/N=c2\[nH]c3ccccc3n2[C@H]2CC[C@@H](O)CC2)cc(-c2cnn(C)c2)n1 [I-143] | 3 |  | > 100000 | 104 | 2180 | 1.9 | 0.4
COC(=O)Cc1ccc2c(c1)[nH]/c(=N\C(=O)c1ccnc(-c3cccnc3)c1)n2CC(C)(C)O [I-054] | 7 | 4.1 | 79700 | 104 |  |  | 
CC(=O)N1CCC(c2ccc3c(c2)[nH]/c(=N\C(=O)c2ccnc(-c4cnn(C)c4)c2)n3[C@H]2CC[C@@H](O)CC2)CC1 [I-219] | 2 |  |  |  | 25.8 | 0.4 | 0.1
Cn1cc(-c2cc(C(=O)/N=c3\[nH]c4ccccc4n3[C@H]3CC[C@@H](O)CC3)cc(C#N)n2)cn1 [I-136] | 2 |  | > 100000 | 31.6 | 164 | 0.8 | 0.2
CN(C)Cc1ccc2c(c1)[nH]/c(=N\C(=O)c1ccnc(-c3cnn(C)c3)c1)n2CC(C)(C)O [I-029] | 58 | 72.4 | 14800 | 190 |  |  | 
CN1CCC(c2ccc3c(c2)[nH]/c(=N\C(=O)c2ccnc(-n4cnc5cccc(F)c54)c2)n3CC(C)(C)O)CC1 [I-030] | 6 | 3.4 | 1960 | 25.5 |  |  | 
Cc1c(-c2cc(C(=O)/N=c3\[nH]c4ccccc4n3C3CCCC3)ccn2)cnn1C [I-004] | 13 | 4.7 | 1950 | 38.5 |  |  | 
CN1CCC(c2ccc3c(c2)[nH]/c(=N\C(=O)c2ccnc(-c4cnn5cccnc45)c2)n3CC(C)(C)O)CC1 [I-032] | 1 | 0.6 | 366 | 3 |  |  | 
Cn1cc(-c2cc(C(=O)/N=c3\[nH]c4ccccc4n3[C@H]3CC[C@@H](O)C3)ccn2)cn1 [I-009] | 30 | 49 | 12400 | 184 |  |  | 
CCCn1/c(=N/C(=O)c2ccnc(-c3cnn(C)c3)c2)[nH]c2ccccc21 [I-014] | 94 | 48.8 | > 100000 | 146 |  |  | 
Cn1cc(-c2cc(C(=O)/N=c3\[nH]c4ccccc4n3CC(C)(C)CO)ccn2)cn1 [I-038] | 27 | 15.8 | 40800 | 234 |  |  | 
COc1ccncc1-c1cc(C(=O)/N=c2\[nH]c3cc(C4CCN(C)CC4)ccc3n2CC(C)(C)O)ccn1 [I-028] | 1 | 2.4 | 591 | 4.2 |  |  | 
Cn1cc(-c2cc(C(=O)/N=c3\[nH]c4ccccc4n3C3CCCC3)ccn2)cn1 [I-003] | 29 | 9.9 | 4080 | 61.7 |  |  | 
Cn1cc(-c2cc(C(=O)/N=c3\[nH]c4ccccc4n3[C@H]3CC[C@H](O)C3)ccn2)cn1 [I-013] | 13 | 18.4 | 3770 | 76.5 |  |  | 
CC(=O)N1CCC(c2ccc3c(c2)[nH]/c(=N\C(=O)c2ccnc(-c4cnn(C)c4)c2)n3C2CCCC2)CC1 [I-008] | 6 | 5 | > 4000 | 39.6 | 185 | 1.5 | 

SMILES | IC50 [1] [nM] | IC50 ([2]; 100 μM ATP) [nM] | IC50 [3, 5] [nM] | IC50 [4, 6] [nM] | IC50 [3, 7] [nM] | IC50 [4, 8] [nM] | IC50 ([2]; 5 μM ATP) [nM]
Cc1nn(C)cc1-c1cc(C(=O)/N=c2\[nH]c3ccccc3n2C2CCCC2)ccn1 [I-005] | 11 | 14.2 | 236 | 105 |  |  | 
CN1CCN(c2ccc3c(c2)[nH]/c(=N\C(=O)c2ccnc(-c4cnn(C)c4)c2)n3CC(C)(C)O)CC1 [I-022] | 71 | 61.8 | 5620 | 169 |  |  | 
CC(C)(O)Cn1/c(=N/C(=O)c2ccnc(-c3cccnc3)c2)[nH]c2cc(C3CCCOC3)ccc21 (stereo not shown) [I-052] | 6 | 6.6 | > 100000 | 189 |  |  | 
Cc1c(-c2cc(C(=O)/N=c3\[nH]c4cc(N5CCN(C)CC5)ccc4n3CC(C)(C)O)ccn2)cnn1C [I-025] | 28 | 27.9 | 7890 | 113 |  |  | 
Cc1ccc2[nH]/c(=N\C(=O)c3ccnc(-c4cnn(C)c4)c3)n(CC(C)(C)O)c2c1 [I-034] | 21 | 22.8 | 3950 | 196 |  |  | 
COC(=O)Cc1ccc2c(c1)[nH]/c(=N\C(=O)c1ccnc(-c3cnn(C)c3)c1)n2CC(C)(C)O [I-055] | 10 | 7.3 | 26300 | 86.9 |  |  | 
Cc1cc(C(=O)/N=c2\[nH]c3ccc(CN4CCOCC4)cc3n2C2CCCCC2)cc(-c2cnn(C)c2)n1 [I-221] | 5 |  |  |  | 2050 | 2 | 0.4
Cc1cc(C(=O)/N=c2\[nH]c3ccc(CN4CCN(C)CC4)cc3n2C2CCCCC2)cc(-c2cnn(C)c2)n1 [I-224] | 3 |  |  |  | 267 | 0.5 | 0.2
Cn1cc(-c2cc(C(=O)/N=c3\[nH]c4cc(C5CCCOC5)ccc4n3CC(C)(C)O)ccn2)cn1 (stereo not shown) [I-053] | 2 | 8.7 | 5740 | 94.1 |  |  | 
Cc1cc(C(=O)/N=c2\[nH]c3ccc(CN4CCN(C)CC4)cc3n2[C@H]2CC[C@@H](O)CC2)cc(-c2cnn(C)c2)n1 [I-222] | 5 |  |  |  | 318 | 0.6 | 0.2
Cn1cc(-c2cc(C(=O)/N=c3\[nH]c4ccccc4n3[C@H]3CC[C@H](O)CC3)ccn2)cn1 [I-036] | 3 | 4 | 1250 | 40.1 | 407 | 1.6 | 
Cn1cc(-c2cc(C(=O)/N=c3\[nH]c4ccccc4n3C3CCC3)ccn2)cn1 [I-019] | 37 | 26.3 | 4370 | 102 |  |  | 
Cc1cc(C(=O)/N=c2\[nH]c3ccc(CN4CCOCC4)cc3n2[C@H]2CC[C@@H](O)CC2)cc(-c2cnn(C)c2)n1 [I-223] | 4 |  |  |  | 2020 | 1.8 | 0.5
CN1CCC(c2ccc3c(c2)[nH]/c(=N\C(=O)c2ccnc(-c4cnn(C)c4)c2)n3CC(C)(C)O)CC1 [I-021] | 4 | 4.9 | 876 | 27.7 |  |  | 
CC(C)(O)Cn1/c(=N/C(=O)c2ccnc(-n3cnc4ccccc43)c2)[nH]c2ccccc21 [I-039] | 9 | 36 | > 100000 | 508 |  |  | 
CC(C)Cn1/c(=N/C(=O)c2ccnc(-c3cnn(C)c3)c2)[nH]c2ccccc21 [I-012] | 25 | 10.5 | > 100000 | 64.6 | 403 | 1.9 | 
CN1CCC(c2ccc3c(c2)[nH]/c(=N\C(=O)c2ccnc(-c4cnn(C)c4)c2)n3C2CCCC2)CC1 [I-010] | 20 | 2.9 | 5110 | 17.4 |  |  | 
Cc1ccc2c(c1)[nH]/c(=N\C(=O)c1ccnc(-c3cnn(C)c3)c1)n2CC(C)(C)O [I-033] | 9 | 8.6 | 9510 | 91.6 |  |  | 
O=C(/N=c1\[nH]c2ccccc2n1C1CCCC1)c1ccnc(-c2cccnc2)c1 [I-002] | 9 | 4.6 | 2510 | 67.4 |  |  | 
CN1CCC(c2ccc3c(c2)[nH]/c(=N\C(=O)c2ccnc(-c4cnn(C)c4)c2)n3CC(C)(C)O)CC1=O (stereo not shown) [I-035] | 79 | 5.6 | 6670 | 79.3 |  |  | 
